For this series, the system named is lipase. The series is described as follows: Stability of iturin A to lipase in fermentation broth. The series is classed as in vitro ADME. The note with it: RSM (76.52 g/L) fermentation broth after 72 h fermentation; 5 U/mL lipase added vs no lipase; continued at 28 °C, 220 rpm; iturin A concentration at 0, 24, 48 and 72 h by HPLC (210 nm); triplicate; Fig. 5. On the procedure: Iturin A was extracted according to a reported method. Briefly, 0.3 mL of the mixed fermentation broth was added into a 2 mL glass tube containing 1.2 mL of methanol, shaken well and incubated for 60 min. The mixture was centrifuged at 12,000 rpm for 20 min, and the supernatant was filtered through a 0.22 μm pore-size hydrophobic polytetrafluoroethylene (PTFE) type disposable syringe. The iturin A concentration was quantified using a Waters 2695 HPLC system equipped with an ACQUITY UPLC BEA C18 column (1.7 μm 2.1 × 100 mm, Waters, USA). A mixture of acetonitrile and 10 mM ammonium acetate (35:65, v/v) was used as the mobile phase at a flow rate of 0.3 mL/min, and the elution was monitored at 210 nm. The concentration of iturin A was analyzed and quantified using an authentic reference standard (Sigma Chemicals, St. Louis, MO, USA). The content of iturin A was measured using triplicate samples.
First, submerged fermentation were performed in 250 mL flasks with 20 mL medium, containing (per liter): 60 g glucose, 1 g K2HPO4·3H2O, 0.5 g MgSO4·7H2O, 0.005 g MnSO4·H2O, and 76.52 g RSM. After 72 h of fermentation, the fermentation broth was divided into two groups. Therein, one group supplemented with 5 U/mL lipase while the other without lipase addition. […] And the concentrations of iturin A at different time (0, 24, 48 and 72 h) were measured.

For iturin A, the “stability of iturin A to excess lipase” value is on record as “almost no effect on the stability of iturin A”.

For the origin of these results see article PMC6915999, “Simultaneous hydrolysis with lipase and fermentation of rapeseed cake for iturin A production by Bacillus amyloliquefaciens CX-20” (BMC Biotechnology, 2019).
